Measured values taken from publication PMC9973354 (mBio, 2022).
Starred links: 1 amine or outer side, 2 acyl side, 3 side chain; linkers in the order of their positions; H or OH if unused. Positions of bridges follow the written chain, without caps; N, C: chain ends. Non-standard residues stand in square brackets, D forms with d. Residues, ends and D or L forms follow the SMILES beside them. ξ: configuration not given here. X1 = O=C([C@@H]1CCN=C2C(N[*:1])=Cc3cc(O)c(O)cc3N21)[*:2]; ξOrn(N(OH)CHO) = NC(CCCN(O)C=O)C(=O)O; Suc = O=C(CCC(=O)[*:2])[*:1]; ξK = NCCCCC(N)C(=O)O; ξS = NC(CO)C(=O)O

Key:
Format in all cases: cell-based, Pseudomonas aeruginosa
PA14 = assay: Growth curves with DSX and siderophores, WT PA14; conditions: 20 h
Description: Supplementary file : FIG S1 (A) FpvB is expressed in WT PA14 and the ΔfpvA mutant grown in 10:90. PilF was used as a loading control for outer membrane proteins. (B) FpvA is expressed from WT PA14 grown in 10:90. […] PilF was used as a loading control for outer membrane proteins. (C) Growth curves of PA14 and mutants with DSX and different siderophores in 10:90. PA14, ΔfpvA, ΔfpvB, ΔfpvA ΔfpvB, and ΔpvdA ΔpchA strain growth. Blue indicates control, purple indicates treatment with 64 μg/mL DSX, yellow indicates treatment with 10 μg/mL pyoverdine (PA14), and red indicates treatment with 64 μg/mL DSX and 10 μg/mL pyoverdine (PA14). (D) ΔfpvA, ΔfpvA ΔfpvB, and ΔpvdA ΔpchA strain growth. Blue indicates control, purple indicates treatment with 64 μg/mL DSX, grey indicates treatment with 10 μg/mL ferrichrome, and red indicates treatment with 64 μg/mL DSX and 10 μg/mL ferrichrome. (E) ΔfpvA, ΔfpvA ΔfpvB, and ΔpvdA ΔpchA strain growth. […] Download FIG S1, EPS file, 8.5 MB.
Another explanation for the susceptibility of the ΔfpvA mutant to DSX is that the mutant produces less pyoverdine compared to WT cells due to loss of the signaling cascade that controls siderophore production in response to its binding to FpvA ([25]). To differentiate whether the fpvA mutant was susceptible to DSX because of reduced pyoverdine production or because FpvB was a poor pyoverdine transporter, we treated the WT, ΔfpvA, ΔfpvB, and ΔfpvA ΔfpvB strains with DSX (64 μg/mL) without and with exogenous pyoverdine (10 μg/mL) for 20 h (Fig. 1; see also Fig. S1C). Growth of the ΔfpvA mutant should be restored if there are functional pyoverdine transporters. […] The growth of the ΔfpvA ΔfpvB mutant was inhibited by DSX and pyoverdine, confirming previously published results ([18]).

[1] = test system: PA14 ΔfpvA ΔfpvB pHERD20T-fpvA; assay: Checkerboard assay TS and siderophores, FpvA expressed; conditions: 10:90 + 2% arabinose
Excerpt: We investigated this hypothesis by treating the ΔfpvA ΔfpvB mutant complemented with fpvA or fpvB with TS and pyoverdine-Fe^3+. If pyoverdine competes with TS for the same binding site in the transporter, a reduction in TS susceptibility would be expected, as competition would decrease entry of the antibiotic into the cell. TS susceptibility decreased >8-fold with increasing concentrations of pyoverdine-Fe^3+ when FpvA was expressed (see Fig. S2A in the supplemental material).
Supplementary file : FIG S2 Checkerboard assays of the PA14 ΔfpvA ΔfpvB strain complemented with fpvA and fpvB in trans with TS and siderophores. […] Checkerboards of the PA14 ΔfpvA ΔfpvB pHERD20T-fpvB strain with TS and enterobactin (G), ferrioxamine E (H), and arthrobactin (I). Results are averaged from three independent biological replicates. Cells in the assay were grown in 10:90 + 2% arabinose. Download FIG S2, EPS file, 2.2 MB.
Checkerboards (8 rows by 8 columns) were conducted as previously described in a 96-well plate (Nunc) ([13], [14]). TS at 75× the final concentration dissolved in DMSO was added in columns from bottom to top in increasing concentrations. Siderophores at 75× the final concentration dissolved in DSMO were added from in rows from left to right in increasing concentrations. Four columns were used for vehicle controls (DMSO) and sterile controls. […] Plates were sealed to prevent evaporation and incubated at 37°C overnight in a shaking incubator (200 rpm). The next day, the OD600 was determined with a plate reader (Thermo Scientific) and normalized to percent of growth of the vehicle control (DMSO) after subtracting the OD600 from blank media.

[2] = test system: PA14 ΔfpvA ΔfpvB ΔfiuA ΔfoxA quadruple mutant; assay: Growth phenotypes of deletion mutants, quadruple mutant; conditions: 64 μg/mL DSX, 10 μg/mL siderophores, 10:90
Excerpt: PA14, ΔfpvA, ΔfpvB, and ΔfpvA ΔfpvB strains treated with TS (A) and DSX (B) in 10:90. Green indicates growth, and white indicates no growth. Growth is expressed as percent of control. The PA14 ΔfpvA ΔfpvB strain complemented with pHERD20T, fpvA, or fpvB treated with TS (C) and DSX (D) in 10:90. […] All experiments are averaged from three independent biological replicates. Blue indicates growth and white indicates no growth. (H) Summary of growth phenotypes of WT PA14 and combinations of single, double, triple, and quadruple deletion mutants in fpvA, fpvB, fiuA, and foxA. […] Green indicates growth, whereas no growth is indicated in white. […] Representative plates are shown.
If there were no transporters for a particular siderophore, the mutant would fail to grow due to iron restriction.

[3] = test system: PA14 ΔfpvA ΔfpvB ΔfiuA ΔfoxA pHERD20T-fpvB D219A; assay: Growth of quadruple mutant expressing FpvB D219A; conditions: 10:90 + 2% arabinose
Description: (§1) Site-directed mutagenesis was used to confirm the docking predictions and to define the molecular determinants for ligand uptake through FpvB (Fig. 4C). We generated 17 single amino acid substitutions in FpvB and expressed each of them in trans in the quadruple ΔfpvA ΔfpvB ΔfiuA ΔfoxA mutant. Their ability to complement growth of the mutant in the presence of ferrichrome and ferrioxamine B and to restore TS susceptibility was assessed. […] The mutant transporters were tagged with a C-terminal FLAG tag to evaluate expression levels. FLAG-tagged FpvB mutants had WT levels of expression except for Y216T and W347V, which were expressed at 140% and 25% of WT, respectively.
(§2) The ΔfpvA ΔfpvB ΔfiuA ΔfoxA mutant was complemented with WT fpvA, fpvB, fiuA, and foxA in trans as controls (Fig. 4E).
(§3) MIC assays were conducted as previously described ([13], [14]). Overnight cultures were grown in LB from a glycerol stock at 37°C with shaking (200 rpm). Subcultures in 10:90 (1:100 dilution) were cultured for 4 h. Cells were adjusted to an optical density at 600 nm (OD600) of 0.1/500 in 10:90. All compounds were serially diluted 2-fold in dimethyl sulfoxide (DMSO) or H2O at 75× the final concentration. […] The next day, the OD600 was determined with a plate reader (Thermo Scientific) and normalized to percent of growth of the vehicle control after subtracting the OD600 from blank media.

[4] = test system: PA14 ΔfpvA ΔfpvB ΔfiuA ΔfoxA pHERD20T; assay: Growth of quadruple mutant with empty vector; conditions: 10:90 + 2% arabinose
Description: as §1, §2, §3

Compound: NCCCCC(NC(=O)C(CO)NC(=O)[C@@H]1CCN=C2C(NC(=O)CCC(=O)O)=Cc3cc(O)c(O)cc3N21)C(=O)NCC(=O)NC(CCCN(O)C=O)C(=O)NC1CCCCNC(=O)C(CO)NC(=O)C(CCCN(O)C=O)NC1=O (stereo partly drawn) [pyoverdine] (Suc-[X1][ξS][ξK]G[ξOrn(N(OH)CHO)][ξK][ξOrn(N(OH)CHO)][ξS]; lactam 6-C)
- growth with siderophore in the presence of DSX (PA14; 64 μg/mL DSX + 10 μg/mL pyoverdine): increased growth
- growth versus control (PA14; DSX 64 μg/mL or pyoverdine 10 μg/mL alone, 10:90): increased growth

Compound: CC(=O)N(O)CCCCCNC(=O)CCC(=O)N(O)CCCCCNC(=O)CCC(=O)N(O)CCCCCN [ferrioxamine B]
- effect of siderophore on TS susceptibility [1]: None of those siderophores reduced TS susceptibility
- growth in the presence of compound [2]: failed to grow
- growth in the presence of siderophore [3]: prevented growth
- growth in the presence of siderophore [4]: inhibited
